Source: US8426420B2, “Heterocyclic pyrazole-carboxamidesas P2Y12 antagonists” (Sanofi, priority 2007, dated 2013)

What was measured:
[1] = test system: human platelet rich plasma; test: Inhibition of human platelet aggregation, 96-well assay; type: cell-based; conditions: Homo sapiens, Platelet, 20 min
Procedure, shortened: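 ADP-induced aggregation read as 650 nm absorbance every minute for 20 min at 37 °C, with shaking between reads. PRP (~3×E8 platelets/ml, diluted with PPP, ACD-A blood from healthy volunteers) was exposed to compound for 5 min before adding a 40 μM ADP stock (15 μl into 150 μl).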

[2] = test system: human platelet rich plasma; test: Inhibition of human platelet aggregation, "Born"-method using single cuvettes; type: cell-based; conditions: 0.1 h, ADP-induced aggregation, 6 minutes
Description: Inhibition of Human Platelet Aggregation
Alternatively to a binding assay which measures a compound's ability to bind to the P2Y12 receptor, the effect on cellular function was also determined. This ability of the compound was evaluated in two platelet aggregation assays: in 96-well plates and with the “Born”-method using single cuvettes.
Whole blood was collected from healthy volunteers using 20 ml syringes containing 2 ml of buffered Citrate. The anticoagulated whole blood was transferred into 15 ml polypropylene conical tubes (10 ml per tube). The tubes were centrifuged for 15 minutes at 340×g at RT without using the centrifuge brake. This procedure leads to a pellet of cellular components and a supernatant of platelet rich plasma (PRP). The PRP layer was collected from each tube and pooled for each donor. To avoid carry over of cellular components following centrifugation, approximately 5 ml of PRP was left in the tube. The platelet concentration was determined using a Coulter Counter.
The 15 ml tubes containing the pellet of cellular components were centrifuged again for 10 minutes at 1940×g. This pelleted out most particulate blood constituents remaining, leaving a layer of Platelet Poor Plasma (PPP). The PPP was collected for each donor. The PRP layer, previously set aside, was diluted with PPP to a final concentration of approximately 3×E8 platelets/ml with the PPP.
The human platelet aggregation assay is performed in single use cuvettes using the platelet aggregation profiler (PAP-4 or -8, Bio/Data corporation).
In the assay cuvette 4 μl of test compound at 100× final concentration in DMSO is mixed with 392 μl fresh PRP and incubated for 2 minutes at 37° C. with 1.200 rpm stirring. Following that incubation period, 4 μl of 250 μM ADP is added to the reaction mix. This addition of ADP is sufficient to induce aggregation in the absence of an inhibitor. After that aggregation is measured over 6 minutes at 37° C. with 1.200 rpm stirring. Results of the assay are expressed as % inhibition, and are calculated using maximum aggregation (Tmax) or area under curve (AUC) of the absorbance over 6 minutes.
The IC50 data of the above described platelet aggregation assay using human platelet rich plasma for exemplary compounds of the present invention are shown in table 3.

[3] = molecular target: human P2Y12 receptor (Homo sapiens, UniProt Q9H244); test: Human P2Y12 recombinant cell membrane binding assay with 33P 2MeS-ADP; conditions: competition against 33P 2MeS-ADP, membranes of CHO cells with recombinant human P2Y12 receptor
Procedure, shortened: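 Competition binding against radiolabeled 2MeS-ADP (1.61 nM as added) on membranes from recombinant human P2Y12 CHO cells, 20 min RT after 15 min compound preincubation, pH 7.4. Filtration then scintillation counting; compounds tested in triplicate from 10 μM final, five-fold dilutions, curve fit with plate-defined min/max.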

Sequence of human P2Y12 receptor (Q9H244 whole entry): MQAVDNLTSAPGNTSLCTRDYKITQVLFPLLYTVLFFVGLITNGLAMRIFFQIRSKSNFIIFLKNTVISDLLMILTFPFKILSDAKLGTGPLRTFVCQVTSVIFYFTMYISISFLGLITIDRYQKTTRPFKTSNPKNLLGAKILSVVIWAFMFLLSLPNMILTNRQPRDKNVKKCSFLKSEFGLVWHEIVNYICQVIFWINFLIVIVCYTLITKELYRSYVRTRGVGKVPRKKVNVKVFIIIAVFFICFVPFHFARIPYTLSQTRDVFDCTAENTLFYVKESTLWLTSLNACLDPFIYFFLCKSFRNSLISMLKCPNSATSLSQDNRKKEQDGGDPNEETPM

Row | IC50 [1] [nM] | IC50 [2] [nM] | IC50 [3] [nM] | SMILES
1 | 10 | 210 | 270 | CCOC(=O)N1CCN(C(=O)[C@H](CCC(=O)O)NC(=O)c2cc(OCC(=O)N3CCC[C@H]3C(=O)NC3CC3)n(-c3ccccc3)n2)CC1 [Example 1, 4-[(S)-4-Carboxy-2-({5-[2-((S)-2-cyclopropylcarbamoyl-pyrrolidin-1-yl)-2-oxo-ethoxy]-1-phenyl-1H-pyrazole-3-carbonyl}-amino)-butyryl]-piperazine-1-carboxylic acid ethyl ester]
2 | 60 | 91 | 172 | CCCNC(=O)[C@@H]1CCCN1C(=O)COc1cc(C(=O)N[C@@H](CCC(=O)O)C(=O)N2CCN(C(=O)OCC)CC2)nn1-c1ccccc1 [Example 9, 4-{(S)-4-Carboxy-2-[(5-{2-[(S)-2-propylcarbamoyl-pyrrolidin-1-yl]-2-oxo-ethoxy}-1-phenyl-1H-pyrazole-3-carbonyl)-amino]-butyryl}-piperazine-1-carboxylic acid ethyl ester]
3 | 100 | 72 | 50 | CCOC(=O)N1CCN(C(=O)[C@H](CCC(=O)O)NC(=O)c2cc(OCC(=O)N3CCC[C@H]3C(=O)NCC3CCC3)n(-c3ccccc3)n2)CC1 [Example 20, 4-{(S)-4-Carboxy-2-[(5-{2-[(S)-2-(cyclobutylmethyl-carbamoyl)-pyrrolidin-1-yl]-2-oxo-ethoxy}-1-phenyl-1H-pyrazole-3-carbonyl)-amino]-butyryl}-piperazine-1-carboxylic acid ethyl ester]
4 | 50 | 180 | 93 | CCOC(=O)N1CCN(C(=O)[C@H](CCC(=O)O)NC(=O)c2cc(O[C@H](C)C(=O)N3CCC[C@H]3C(=O)NC3CC3)n(-c3ccccc3)n2)CC1 [Example 61, 4-[(S)-4-Carboxy-2-({5-[(R)-2-((S)-2-cyclopropylcarbamoyl-pyrrolidin-1-yl)-1-methyl-2-oxo-ethoxy]-1-phenyl-1H-pyrazole-3-carbonyl}-amino)-butyryl]-piperazine-1-carboxylic acid ethyl ester]
5 | 130 | 58 | 17 | CCOC(=O)N1CCN(C(=O)[C@H](CCC(=O)O)NC(=O)c2cc(O[C@H](C)C(=O)N3CCC[C@H]3C(=O)NC3CCC3)n(-c3ccccc3)n2)CC1 [Example 62, 4-[(S)-4-Carboxy-2-({5-[(R)-2-((S)-2-cyclobutylcarbamoyl-pyrrolidin-1-yl)-1-methyl-2-oxo-ethoxy]-1-phenyl-1H-pyrazole-3-carbonyl}-amino)-butyryl]-piperazine-1-carboxylic acid ethyl ester]
6 | 10 | 210 | 55 | CCOC(=O)N1CCN(C(=O)[C@H](CCC(=O)O)NC(=O)c2cc(OCC(=O)N3CCC[C@H]3C(=O)NC3CCC3)n(-c3cccc(F)c3)n2)CC1 [Example 73, 4-((S)-4-Carboxy-2-{[5-[2-((S)-2-cyclobutylcarbamoyl-pyrrolidin-1-yl)-2-oxo-ethoxy]-1-(3-fluoro-phenyl)-1H-pyrazole-3-carbonyl]-amino}-butyryl)-piperazine-1-carboxylic acid ethyl ester]

Continued, molecule first:

Row | SMILES | IC50 [1] [nM] | IC50 [2] [nM] | IC50 [3] [nM]
7 | CCOC(=O)N1CCN(C(=O)[C@H](CCC(=O)O)NC(=O)c2cc(OCC(=O)N3CCC[C@H]3C(=O)NC(C)(C)C)n(-c3ccccc3)n2)CC1 [Example 12, 4-{(S)-4-Carboxy-2-[(5-{2-[(S)-2-tert-butylcarbamoyl-pyrrolidin-1-yl]-2-oxo-ethoxy}-1-phenyl-1H-pyrazole-3-carbonyl)-amino]-butyryl}-piperazine-1-carboxylic acid ethyl ester] | 20 | 70 | 107
8 | CCOC(=O)N1CCN(C(=O)[C@H](CCC(=O)O)NC(=O)c2cc(OCC(=O)N3CCC[C@H]3C(=O)NCC(F)F)n(-c3ccccc3)n2)CC1 [Example 15, 4-{(S)-4-Carboxy-2-[(5-{2-[(S)-2-(2,2-difluoro-ethylcarbamoyl)-pyrrolidin-1-yl]-2-oxo-ethoxy}-1-phenyl-1H-pyrazole-3-carbonyl)-amino]-butyryl}-piperazine-1-carboxylic acid ethyl ester] | 130 | 120 | 164
9 | CCOC(=O)N1CCN(C(=O)[C@H](CCC(=O)O)NC(=O)c2cc(OC(C)C(=O)N3CCC[C@H]3C(=O)NCC(F)(F)F)n(-c3ccccc3)n2)CC1 (stereo partly drawn) [Example 53, 4-{(S)-4-Carboxy-2-[(5-{1-methyl-2-oxo-2-[(S)-2-(2,2,2-trifluoro-ethylcarbamoyl)-pyrrolidin-1-yl]-ethoxy}-1-phenyl-1H-pyrazole-3-carbonyl)-amino]-butyryl}-piperazine-1-carboxylic acid ethyl ester] | 30 | 39 | 129
10 | CCOC(=O)N1CCN(C(=O)[C@H](CC(=O)O)NC(=O)c2cc(OCC(=O)N3CCC[C@H]3C(=O)NCC3CC3)n(-c3ccccc3)n2)CC1 [Example 55, 4-{(S)-3-Carboxy-2-[(5-{2-[(S)-2-(cyclopropylmethyl-carbamoyl)-pyrrolidin-1-yl]-2-oxo-ethoxy}-1-phenyl-1H-pyrazole-3-carbonyl)-amino]-propionyl}-piperazine-1-carboxylic acid ethyl ester] | 20 | 60 | 70
11 | CCOC(=O)N1CCN(C(=O)[C@H](CCC(=O)O)NC(=O)c2cc(O[C@H](C)C(=O)N3CCC[C@H]3C(=O)NCC(F)(F)F)n(-c3ccccc3)n2)CC1 [Example 65, 4-[(S)-4-Carboxy-2-({5-[(R)-2-((S)-2-(2,2,2-trifluoroethylcarbamoyl)-pyrrolidin-1-yl)-1-methyl-2-oxo-ethoxy]-1-phenyl-1H-pyrazole-3-carbonyl}-amino)-butyryl]-piperazine-1-carboxylic acid ethyl ester] | – | 120 | 55
12 | CCCCOC(=O)N1CCN(C(=O)[C@H](CCC(=O)O)NC(=O)c2cc(OCC(=O)N3CCC[C@H]3C(=O)N(C)C3CCC3)n(-c3ccccc3)n2)CC1 [Example 124, 4-{(S)-4-Carboxy-2-[(5-{2-[(S)-2-(cyclobutyl-methyl-carbamoyl)-pyrrolidin-1-yl]-2-oxo-ethoxy}-1-phenyl-1H-pyrazole-3-carbonyl)-amino]-butyryl}-piperazine-1-carboxylic acid butyl ester] | – | 20 | 71
13 | CCCCOC(=O)N1CCN(C(=O)[C@H](CCCO)NC(=O)c2cc(OCC(=O)N3CCC[C@H]3C(=O)NC3CCC3)n(-c3ccccc3)n2)CC1 [Example 178, 4-[(S)-2-({5-[2-((S)-2-Cyclobutylcarbamoyl-pyrrolidin-1-yl)-2-oxo-ethoxy]-1-phenyl-1H-pyrazole-3-carbonyl}-amino)-5-hydroxy-pentanoyl]-piperazine-1-carboxylic acid butyl ester] | – | 70 | 17
14 | CCCCOC(=O)N1CCN(C(=O)CNC(=O)c2cc(O[C@H](C)C(=O)N3CCC[C@H]3C(=O)NC3CCC3)n(-c3ccccc3)n2)CC1 [Example 269, 4-[2-({5-[(R)-2-((S)-2-Cyclobutylcarbamoyl-pyrrolidin-1-yl)-1-methyl-2-oxo-ethoxy]-1-phenyl-1H-pyrazole-3-carbonyl}-amino)-acetyl]-piperazine-1-carboxylic acid butyl ester] | – | 50 | 3
